Measurements: ChEMBL document CHEMBL2406921, “Regioselective synthesis, characterization and antimicrobial evaluation of S-glycosides and S,N-diglycosides of 1,2-Dihydro-5-(1H-indol-2-yl)-1,2,4-triazole-3-thione” (2013)

Legend:
Type in all cases: functional
Conditions in all cases: read-out: DIZ
[1] = tested on: Aspergillus niger; assay: Antifungal activity against Aspergillus niger at 5 mg/ml by paper disc diffusion method
[2] = tested on: Rhizoctonia solani; assay: Antifungal activity against Rhizoctonia solani at 5 mg/ml by paper disc diffusion method
[3] = tested on: Fusarium oxysporum; assay: Antifungal activity against Fusarium oxysporum at 5 mg/ml by paper disc diffusion method
[4] = tested on: Pseudomonas aeruginosa; assay: Antibacterial activity against Pseudomonas aeruginosa at 5 mg/ml after 24 hrs by agar-diffusion technique
[5] = tested on: Bacillus subtilis; assay: Antibacterial activity against Bacillus subtilis at 5 mg/ml after 24 hrs by agar-diffusion technique

## NNC(=O)c1cc2ccccc2[nH]1
[1]
  zone of inhibition at 5000 µg/mL: 0 mm
[2]
  zone of inhibition at 5000 µg/mL: 0.85 mm
[3]
  zone of inhibition at 5000 µg/mL: 1.3 mm
[4]
  zone of inhibition at 5000 µg/mL: 3 mm
[5]
  zone of inhibition at 5000 µg/mL: 12 mm

## CC(=O)N[C@@H]1[C@@H](OC(C)=O)[C@H](OC(C)=O)[C@@H](COC(C)=O)O[C@H]1Sc1n[nH]c(-c2cc3ccccc3[nH]2)n1
[1]
  zone of inhibition at 5000 µg/mL: 0 mm
[2]
  zone of inhibition at 5000 µg/mL: 1.75 mm
[3]
  zone of inhibition at 5000 µg/mL: 0 mm
[4]
  zone of inhibition at 5000 µg/mL: 3.9 mm
[5]
  zone of inhibition at 5000 µg/mL: 5.1 mm

## CC(=O)OC[C@H]1O[C@@H](n2nc(-c3cc4ccccc4[nH]3)nc2S[C@@H]2O[C@H](COC(C)=O)[C@@H](OC(C)=O)[C@H](OC(C)=O)[C@H]2OC(C)=O)[C@H](OC(C)=O)[C@@H](OC(C)=O)[C@@H]1OC(C)=O
[1]
  zone of inhibition at 5000 µg/mL: 0 mm
[2]
  zone of inhibition at 5000 µg/mL: 1.15 mm
[3]
  zone of inhibition at 5000 µg/mL: 1.95 mm
[4]
  zone of inhibition at 5000 µg/mL: 2.5 mm
[5]
  zone of inhibition at 5000 µg/mL: 6.5 mm

## CCOC(=O)/C(C)=N/Nc1ccccc1
[1]
  zone of inhibition at 5000 µg/mL: 1.85 mm
[2]
  zone of inhibition at 5000 µg/mL: 1.95 mm
[3]
  zone of inhibition at 5000 µg/mL: 2.3 mm
[4]
  zone of inhibition at 5000 µg/mL: 2.65 mm
[5]
  zone of inhibition at 5000 µg/mL: 12 mm

## NC(=S)NNC(=O)c1cc2ccccc2[nH]1
[1]
  zone of inhibition at 5000 µg/mL: 0 mm
[2]
  zone of inhibition at 5000 µg/mL: 1.05 mm
[3]
  zone of inhibition at 5000 µg/mL: 1 mm
[4]
  zone of inhibition at 5000 µg/mL: 2.5 mm
[5]
  zone of inhibition at 5000 µg/mL: 12 mm

## S=c1nc(-c2cc3ccccc3[nH]2)[nH][nH]1
[1]
  zone of inhibition at 5000 µg/mL: 0 mm
[2]
  zone of inhibition at 5000 µg/mL: 0.8 mm
[3]
  zone of inhibition at 5000 µg/mL: 1.7 mm
[4]
  zone of inhibition at 5000 µg/mL: 3.5 mm
[5]
  zone of inhibition at 5000 µg/mL: 12 mm

## CC(=O)OC[C@H]1O[C@@H](Sc2n[nH]c(-c3cc4ccccc4[nH]3)n2)[C@H](OC(C)=O)[C@@H](OC(C)=O)[C@@H]1OC(C)=O
[1]
  zone of inhibition at 5000 µg/mL: 0 mm
[2]
  zone of inhibition at 5000 µg/mL: 0.6 mm
[3]
  zone of inhibition at 5000 µg/mL: 0 mm
[4]
  zone of inhibition at 5000 µg/mL: 3.25 mm
[5]
  zone of inhibition at 5000 µg/mL: 12 mm

## CC(=O)OC[C@H]1O[C@@H](Sc2n[nH]c(-c3cc4ccccc4[nH]3)n2)[C@H](OC(C)=O)[C@@H](OC(C)=O)[C@H]1OC(C)=O
[1]
  zone of inhibition at 5000 µg/mL: 0 mm
[2]
  zone of inhibition at 5000 µg/mL: 0.75 mm
[3]
  zone of inhibition at 5000 µg/mL: 2.1 mm
[4]
  zone of inhibition at 5000 µg/mL: 0.5 mm
[5]
  zone of inhibition at 5000 µg/mL: 12 mm

## CCOC(=O)c1cc2ccccc2[nH]1
[1]
  zone of inhibition at 5000 µg/mL: 1.3 mm
[2]
  zone of inhibition at 5000 µg/mL: 2.7 mm
[3]
  zone of inhibition at 5000 µg/mL: 1.9 mm
[4]
  zone of inhibition at 5000 µg/mL: 4.85 mm
[5]
  zone of inhibition at 5000 µg/mL: 5.6 mm

## O=C(N[C@H](CO)[C@H](O)c1ccc([N+](=O)[O-])cc1)C(Cl)Cl [CHLORAMPHENICOL]
[4]
  zone of inhibition at 5000 µg/mL: 7.9 mm
[5]
  zone of inhibition at 5000 µg/mL: 12 mm
